Like-named read-outs stand apart in the source and are kept apart here.
Key:
[1] = system: melanoma cell lines (A375, A875, SK-MEL-1); experiment: Initial screening of analogues against melanoma cell lines; assay type: cell-based; conditions: for activity in initial screening: A375, A875, SK-MEL-1, 0–50 µM, 72 h, Figure 2A–C
Method: (§1) The HepG-2, HUVEC, L-02, HK-2, A375, A549, H8, U251, HeLa, Cal-27, and PANC-1 cells were maintained in a DMEM medium. The TSSCA, SK-MEL-1, and […] cells were cultured in an RPMI-1640 medium, and the A875 cells were cultured in a MEM medium. All cells were supplemented with 10% fetal bovine serum, 100 units/mL penicillin, and streptomycin at 37 °C in 5% CO2. The Cell Counting Kit-8 (CCK-8, bs-0764P, Bioss, Beijing, China) method was used to assay the cytotoxicity.
(§2) Figure 2 Effect of CA analogues in melanoma cells. (A–D) The different melanoma cell lines were treated with 0–50 µM analogues for 72 h, and then IC50 value was assayed (A dashed blue line: 50% inhibition rate; red box: analogues with high activity).

[2] = system: hepatocytes; conditions: mouse, in vivo; cited from earlier work
[3] = system: hepatocytes; conditions: rat, in vivo, 1100 mg/kg; cited from earlier work
[4] = system: rats; conditions: intravenous injection; cited from earlier work
[5] = system: A375 cells; experiment: A375 xenograft in nude mice; assay type: in vivo, BALB/c-nude mice
Method: The 8-week-old female BALB/c-nude mice (18–20 g, specific pathogen-free, SPF) were obtained from the Laboratory Animal Experimental Center of the Academy of Military Medical Sciences (SCXK2012-0004, Beijing, China), and were injected with A375 cells and siENO1-A375 cells (1 × 10^7), respectively. One weeks after the tumor formation, four groups were set up: the “negative control (NC)” group (A375 cells, injected with PBS/day); “siENO1” group (siENO1-A375 cells, injected with PBS/day); “Dacarbazine” group (A375 cells, injected with 10 mg/kg/day dacarbazine); and the “CAD-14” group (A375 cells, injected with 5 mg/kg/day CAD-14). The tumor volume was measured every three days and calculated as length × width^2/2. After two weeks, the mice were sacrificed.
Tumor tissues were isolated from the mice after sacrifice. Then, the tissues were fixed in 4% paraformaldehyde and embedded in paraffin. For immunohistochemistry staining, tissues were stained with Ki67 (GB111141, Servicebio, Wuhan, China). For immunofluorescent staining, tissues were stained with ENO1 (bs-3978R, Bioss, Beijing, China).
Figure 5 CAD-14 inhibited the growth of A375 cells in vivo. (A–C) The A375 cells were transfected with three different recombinant ENO1 retroviral vectors and an NC virus for 72 h; the effect of recombinant retrovirus on ENO1 expression were evaluated via fluorescence photography and Western blotting. Histograms show the intensity ratio. (n = 3). Values represent the means ± SD. ** p < 0.01 versus “NC” group. (D–F) Cells were injected subcutaneously into nude mice. Then, they were treated with Dacarbazine (10 mg/kg/day, as a positive control) or CAD-14 (5 mg/kg/day) for two weeks (the red arrow at day 7 represents the first day of treatment). The tumor volume was calculated (n = 5). (G,H) Immunofluorescent staining of Ki67 and ENO1 to detect proliferation ability and expression of ENO1 in tumor tissues, respectively. Values represent the means ± SD. * p < 0.05 versus “PBS” group.

[6] = system: multiple types of cancer cells and normal cells; experiment: Specificity towards different tumor and normal cell lines; assay type: cell-based; conditions: 0–200 µM, 72 h; Figure 3A
Method: as §1
(§3) Figure 3 CAD-14 inhibited the proliferation of A375 cells. (A) The different tumor and normal cell lines were treated with 0–200 µM CAD-14 for 72 h, and then IC50 value was assayed. (B) Cells were treated with 0–0.02 µM CAD-14 for 14 days, and Giemsa staining was used to conduct colony formation assays; the histogram depicts the number of colonies. (C,D) Cells were treated with 0–0.8 µM CAD-14 for 24 h; then, the related proteins were tested via Western blotting. Histograms depict the intensity ratio. (E,F) Cells were treated with 0–0.4 µM CAD-14 for 24 h, then the DNA content of the cells was determined with a flow cytometry system. Histograms show the percentage of cells in G0/G1, G2/M, and S phase. Values represent the means ± SD. * p < 0.05, ** p < 0.01 versus “Ctrl” group.

[7] = biological target: T1, ENO1 (Homo sapiens, UniProt P06733); experiment: Western blot and cellular thermal shift assay (CETSA) of ENO1; assay type: binding
T1 construct: endogenous in cells; host or cells: A375 cells (whole-cell extracts or cell lysates)
T1 sequence (P06733 whole entry): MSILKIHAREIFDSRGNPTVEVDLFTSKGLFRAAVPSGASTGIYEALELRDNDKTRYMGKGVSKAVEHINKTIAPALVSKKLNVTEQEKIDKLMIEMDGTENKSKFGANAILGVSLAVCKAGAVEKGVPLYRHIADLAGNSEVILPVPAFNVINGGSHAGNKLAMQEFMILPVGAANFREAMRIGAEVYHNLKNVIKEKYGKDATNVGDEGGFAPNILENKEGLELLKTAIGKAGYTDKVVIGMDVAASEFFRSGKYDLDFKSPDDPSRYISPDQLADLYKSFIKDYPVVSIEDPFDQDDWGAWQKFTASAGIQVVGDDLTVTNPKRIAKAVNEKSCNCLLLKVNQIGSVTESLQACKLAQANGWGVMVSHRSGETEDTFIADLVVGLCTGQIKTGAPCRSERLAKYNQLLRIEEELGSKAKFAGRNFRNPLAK
Method: (§4) The A375 cells were treated with CAD-14 (0–0.8 µM), alone or with indicated agents, for 24 h. Whole-cell extracts were loaded for SDS-PAGE gels depending on the target protein sizes, and were explored with protein-specific antibodies followed by HRP-conjugated secondary antibodies. Bands corresponding to the antibodies were detected via ECL chemiluminescence.
In A375 cell lysates, CAD-14 (0.4 μM) was added for 24 h at different temperatures. Western blotting was used to quantify the effects on ENO1 protein levels.
(§5) Figure 4 Validation of the CAD-14 anti-melanoma pathway. (A) Cells were treated with 0–0.8 µM CAD-14 for 24 h, and the ENO1 was assayed via Western blotting. […] (C) Molecular docking analysis of ENO1 and CAD-14. (D) Cells were treated with 0–0.8 µM CAD-14 for 24 h, and the p-38/P-p38 were assayed via Western blot. Histograms show the intensity ratio. Values represent the means ± SD. * p < 0.05, ** p < 0.01 versus “Ctrl” group.

[8] = system: p38 pathway in A375 cells; experiment: Western blot of p38/P-p38; assay type: cell-based; conditions: A375, 0–0.8 µM, 24 h
Method: as §4, §5

[9] = system: A375 cells; experiment: Colony formation assay; assay type: cell-based; conditions: A375, 0–0.02 µM, 14 days, versus Ctrl
Method: The A375 cells were plated onto six-well plates (500 cells/well), and after 24 h, CAD-14 (0–0.02 µM) was added to the medium and incubated for an additional 14 days. Cells were fixed in methanol and stained with Giemsa. The colonies were then scored and photographed.
as §3

[10] = system: A375 cells; experiment: CCK-8 cell viability, A375 melanoma cells; assay type: cell-based; conditions: Homo sapiens, A-375, 0–50 µM, 72 h
Method: as §1, §2

[11] = Developmental/acute toxicity test of zebrafish embryos; assay type: in vivo; conditions: AB wild-type, in vivo; zebrafish embryos, 96 h exposure; read-out: median death concentration (IC50)
Description: (§6) The AB-wild-type adult zebrafish (three months old) were purchased from the Institute of Aquatic Biology, Chinese Academy of Sciences (Wuhan, China). During breeding, male and female fish were placed in separate spawning boxes at a 1:1 ratio. Then, early in the morning, they were mixed and laid eggs. During the exposure period, 96-well plates containing normal embryos were randomly selected and viewed daily under a light microscope to assess the developmental toxicity.
(§7) (A) The embryo morphology after CAD-14 treatment for 0–96 h. (B) Survival statistics in different time and concentration.

[12] = system: zebrafish embryos; experiment: as above; assay type: in vivo; conditions: 96 h
Description: as §6, §7

[13] = system: SK-MEL-1 cells; experiment: CCK-8 cell viability, SK-MEL-1 melanoma cells; assay type: cell-based; conditions: Homo sapiens, 0–50 µM, 72 h
Method: as §1, §2

[14] = system: A375 cells; experiment: Cell cycle analysis by flow cytometry; assay type: cell-based; conditions: A375, 0–0.4 µM, 24 h, concentration-dependent
Method: The A375 cells were incubated with CAD-14 (0–0.4 µM) for 24 h. The cells were collected, washed in PBS, and fixed in ice-cold 75% (v/v) ethanol overnight at –20 °C. The cells were re-suspended, and the DNA content was tested using flow cytometry.
as §3

[15] = system: Bak, Bcl-2 and survivin in A375 cells; experiment: Western blotting of apoptosis-related proteins; assay type: cell-based; conditions: A375, 0–0.8 µM, 24 h, dose-dependent
Method: as §4, §3

[16] = system: A875 cells; experiment: CCK-8 cell viability, A875 melanoma cells; assay type: cell-based; conditions: 0–50 µM, 72 h
Method: as §1, §2

Molecule: O=C/C=C/c1ccccc1Br [CAD-7, (E)-3-(2-bromophenyl)acrylaldehyde]
- activity in initial screening [1]: strong activity

Molecule: (E)-3-(pyridin-3-yl)acrylaldehyde [CAD-19]
- activity in initial screening [1]: strong activity

Molecule: O=C/C=C/c1cccc(Cl)c1 [CAD-10, (E)-3-(3-chlorophenyl)acrylaldehyde]
- activity in initial screening [1]: strong activity

Molecule: O=C/C=C/c1cccnc1 [CAD-20, (E)-3-(pyridin-3-yl)acrylaldehyde]
- activity in initial screening [1]: strong activity

Molecule: O=C/C=C/c1ccccc1 [CA, Cinnamaldehyde]
- micronucleus rate in hepatocytes [2]: increased
- micronucleus rate in hepatocytes [3]: increased
- lethal dose (LD50) [4]: 74.8 mg/kg
- Ki67-positive cells in tumor tissues ([5]; staining of tumor tissues, Figure 5G): obvious decrease in Ki67-positive cells

Molecule: O=C/C=C/c1cccc(Cl)c1Cl [CAD-12, (E)-3-(2,3-dichlorophenyl)acrylaldehyde]
- activity in initial screening [1]: strong activity

Molecule: O=C/C=C/c1cccc2ccccc12 [CAD-2, (E)-3-(naphthalen-1-yl)acrylaldehyde]
- activity in initial screening [1]: strong activity

Molecule: O=C/C=C/c1c(F)c(F)c(F)c(F)c1F [CAD-14, (E)-3-(perfluorophenyl)acrylaldehyde]
- specificity towards cell types [6]: inhibited A375 cells more effectively than other cancer cells and was less sensitive to normal cell lines
- thermal stability of ENO1 (temperature-dependent CETSA) ([7]; 0.4 μM, A375 cell lysates): decreased the thermal stability of ENO1
- stability of ENO1 protein ([7]; Western blot 0–0.8 µM 24 h and CETSA): changed the stability of ENO1 protein in a temperature- and dose-responsive manner
- phosphorylation of p38 [8]: suppressed the phosphorylation of p38
- total p38 protein levels [8]: did not affect its total protein levels
- number of colonies [9]: significantly reduced the number of colonies
- IC50 [10]: 580 nM
- LC50 (median lethal concentration) at 96 h [11]: 83700 nM
- Malformation Rates ([12]; 8 μM): 0.00%
- Mortalities ([12]; 8 μM): 0.00%
- Number of Deaths ([12]; 8 μM): 0
- Number of Deformities ([12]; 8 μM): 0
- Survival Number ([12]; 8 μM): 20
- Malformation Rates ([12]; 16 μM): 0.00%
- Mortalities ([12]; 16 μM): 0.00%
- Number of Deaths ([12]; 16 μM): 0
- Number of Deformities ([12]; 16 μM): 0
- Survival Number ([12]; 16 μM): 20
- Malformation Rates ([12]; 32 μM): 0.00%
- Mortalities ([12]; 32 μM): 0.00%
- Number of Deaths ([12]; 32 μM): 0
- Number of Deformities ([12]; 32 μM): 0
- Survival Number ([12]; 32 μM): 20
- Malformation Rates ([12]; 64 μM): 0.00%
- Mortalities ([12]; 64 μM): 0.00%
- Number of Deaths ([12]; 64 μM): 0
- Number of Deformities ([12]; 64 μM): 0
- Survival Number ([12]; 64 μM): 20
- Mortalities ([12]; 128 μM): 90.00%
- Number of Deaths ([12]; 128 μM): 18
- Number of Deformities ([12]; 128 μM): 0
- Survival Number ([12]; 128 μM): 2
- IC50 [13]: 820 nM
- cell cycle arrest [14]: markedly induced S phase arrest
- expression of anti-apoptotic protein Bcl-2 [15]: substantially diminished
- expression of anti-apoptotic protein survivin [15]: substantially diminished
- expression of pro-apoptotic protein Bak [15]: strongly increased
- IC50 [16]: 650 nM
- activity in initial screening [1]: strong activity
- effect relative to CA ([1]; times stronger than CA): 80 times
- effect relative to positive drug DTIC ([1]; times stronger than DTIC, Figure 2D): ~15 times
- tumor growth ([5]; 5 mg/kg/day, two weeks, compared with PBS group): can inhibit the tumor growth
- tumor growth effect compared with dacarbazine ([5]; CAD-14 5 mg/kg/day vs dacarbazine 10 mg/kg/day): the effect was better than dacarbazine
- ENO1 expression in tumor tissues ([5]; immunofluorescent staining, Figure 5H): fewer ENO1 accumulated

Reference: PMC10647553, “Evaluating the Anti-Melanoma Effects and Toxicity of Cinnamaldehyde Analogues” (Molecules, 2023)
